The IC50 is the concentration at which inhibition is half-maximal.

The target in experiment [1] is human sodium channel NaV1.2 (Homo sapiens, UniProt Q99250). The experiment can be described thus: NaV1.2 inhibition, automated patch-clamp (Q-Patch HTX), slow inactivated state (state C). The experiment is classed as cell-based. As to conditions: hNaV1.2 CHO cells, slow inactivated state; for inhibition at 1 µM: 1 μM compound, read-out: NaV1.2 (% inh), 1 μM; for IC50: read-out: NaV1.2 IC50; for inhibition at 10 µM: 10 μM compound, read-out: NaV1.2 (% inh), 10 μM. From the text:
In vitro method for NaV1.2 inhibition assays: The methods utilized to assess the inhibitory activity of compounds on NaV1.2 were based on the methods described by Liu et al. [Liu Y, Beck E J, & Flores C M (2011): Validation of a patch clamp screening protocol that simultaneously measures compound activity in multiple states of the voltage-gated sodium channel Nav1.2. Assay Drug Development Technology 9, 628-634]. For these electrophysiology assays, a cell line (Chinese Hamster Ovarian K-1 cells (CHO K-1)) engineered to stably express human sodium channel NaV1.2 was purchased from Millipore Corporation (catalog no. CYL3023). The electrophysiology measurements were performed using automated patch-clamp methods on a Q-Patch HTX instrument by scientists at Evotec AG under contract with Sunovion.
The solutions utilized for the Qpatch experiments were similar buffered solutions to those described by Liu et al. [Liu Y, Beck E J, & Flores C M (2011)]. The extracellular solution contained 140 millimolar sodium chloride, 4 millimolar potassium chloride, 2 millimolar calcium chloride, 1 millimolar magnesium chloride, 10 millimolar 4-(2-hydroxyethyl)-1-piperazineethanesulfonic acid (HEPES), and 10 millimolar glucose (pH adjusted to 7.4 with sodium hydroxide). The intracellular solution contained 100 millimolar cesium fluoride, 45 millimolar cesium chloride, 10 millimolar HEPES, 5 millimolar ethylene glycol tetraacetic acid (EGTA), and 5 millimolar glucose (pH adjusted to 7.2 with cesium hydroxide).
The biophysical experiments of Lui et al. [Liu Y, Beck E J, & Flores C M (2011)] were replicated to assess the fast, slow and total inactivation characteristics of the human Nav1.2 channel
Based upon results from studies of the fast, slow and total inactivation characteristics of the human Nav1.2 channel, a voltage protocol involving a sequence of consecutive pulses of current was used to measure channel activity in several states [Liu Y, Beck E J, & Flores C M (2011)]. The monolayer of CHO K-1 cells stably expressing human sodium channel NaV1.2 (hNaV1.2 CHO cells) was maintained in the Qpatch instrument at a potential of −100 millivolts (mV) except when the voltage protocol was being executed. The first pulse in the protocol involved a 100 millisecond depolarization to 0 mV to enable measurement of channel availability in the closed state (state A). The potential was then maintained at −90 mV for 15 milliseconds, followed by a five millisecond period of depolarization to 0 mV to enable measurement of channel availability after partial recovery from fast inactivation (state B). Next, the potential was maintained at −90 mV for 300 milliseconds, followed by ten seconds at −50 mV, 15 milliseconds at −90 mV, and finally another five millisecond period of depolarization to 0 mV to enable measurement of channel availability after additional recovery from fast inactivation and significant entry into the slow inactivated state (state C). Finally, after an additional 300 millisecond period at −90 mV, another five millisecond period of depolarization to 0 mV was employed to enable measurement of channel availability after partial recovery from the slow inactivated state (state D). Measurements of activity at state C were used to assess the activity of the NaV1.2 channel in the slow inactivated state. Comparison of activity after addition of test compounds or reference compounds with activity after addition of vehicle only provided a measure of percent remaining activity from which percent inhibition was calculated. […] A slight modification of this protocol was utilized to provide measurements as a function of compound concentration, which enabled IC50 values to be determined. IC50 values were calculated by non-linear least squares regression of the data (percent inhibition of ion channel NaV1.2 activity in the slow inactivated state) onto equation (1): % inhibition=100%/(1+(IC50/[compound]) equation (1)
J Pharmacol Exp Ther. 2008 July; 326(1):89-99.].
(In general: In patch-clamp work, channel activity is measured electrically.)

Experiment [2] deals with T1, recombinant human serotonin receptor 5-HT2A (Homo sapiens, UniProt P28223).
T1 construct: expressed in transfected cells; method B: loaded with Ca2+ dye
T1 sequence (P28223 whole entry): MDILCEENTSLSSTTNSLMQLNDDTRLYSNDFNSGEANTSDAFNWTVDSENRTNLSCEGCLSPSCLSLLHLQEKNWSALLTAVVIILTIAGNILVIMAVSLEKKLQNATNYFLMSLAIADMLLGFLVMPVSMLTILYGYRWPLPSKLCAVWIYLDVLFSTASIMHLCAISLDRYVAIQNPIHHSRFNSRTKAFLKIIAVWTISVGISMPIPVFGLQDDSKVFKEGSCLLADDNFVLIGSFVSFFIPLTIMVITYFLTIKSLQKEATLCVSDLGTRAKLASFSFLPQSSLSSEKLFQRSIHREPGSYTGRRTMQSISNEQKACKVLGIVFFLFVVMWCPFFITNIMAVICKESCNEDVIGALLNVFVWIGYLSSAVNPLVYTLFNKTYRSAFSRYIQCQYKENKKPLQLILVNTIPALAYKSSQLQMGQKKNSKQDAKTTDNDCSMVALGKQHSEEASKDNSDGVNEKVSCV
Briefly: 5-HT2A antagonist Ca2+ assay in CHO-K1 cells (method A aequorin luminescence / method B FLIPR fluorescence). The experiment is classed as cell-based. As to conditions: antagonist mode vs EC80 of reference agonist, method A or B. Put shortly:
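Method A: CHO-K1 cells co-expressing human 5-HT2A and mitochondrial apoaequorin were given reference agonist at EC80 15 min after compound, with luminescence read. Method B: dye-loaded 5-HT2A CHO-K1 cells were pretreated with compound, then given serotonin at EC80, with FLIPR fluorescence read. IC50s came from nonlinear fits of percent inhibition.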

Counter-ions that a name gives are not always drawn. Like-named read-outs stand apart in the source and are kept apart here.

human sodium channel NaV1.2, sequence (Q99250 whole entry): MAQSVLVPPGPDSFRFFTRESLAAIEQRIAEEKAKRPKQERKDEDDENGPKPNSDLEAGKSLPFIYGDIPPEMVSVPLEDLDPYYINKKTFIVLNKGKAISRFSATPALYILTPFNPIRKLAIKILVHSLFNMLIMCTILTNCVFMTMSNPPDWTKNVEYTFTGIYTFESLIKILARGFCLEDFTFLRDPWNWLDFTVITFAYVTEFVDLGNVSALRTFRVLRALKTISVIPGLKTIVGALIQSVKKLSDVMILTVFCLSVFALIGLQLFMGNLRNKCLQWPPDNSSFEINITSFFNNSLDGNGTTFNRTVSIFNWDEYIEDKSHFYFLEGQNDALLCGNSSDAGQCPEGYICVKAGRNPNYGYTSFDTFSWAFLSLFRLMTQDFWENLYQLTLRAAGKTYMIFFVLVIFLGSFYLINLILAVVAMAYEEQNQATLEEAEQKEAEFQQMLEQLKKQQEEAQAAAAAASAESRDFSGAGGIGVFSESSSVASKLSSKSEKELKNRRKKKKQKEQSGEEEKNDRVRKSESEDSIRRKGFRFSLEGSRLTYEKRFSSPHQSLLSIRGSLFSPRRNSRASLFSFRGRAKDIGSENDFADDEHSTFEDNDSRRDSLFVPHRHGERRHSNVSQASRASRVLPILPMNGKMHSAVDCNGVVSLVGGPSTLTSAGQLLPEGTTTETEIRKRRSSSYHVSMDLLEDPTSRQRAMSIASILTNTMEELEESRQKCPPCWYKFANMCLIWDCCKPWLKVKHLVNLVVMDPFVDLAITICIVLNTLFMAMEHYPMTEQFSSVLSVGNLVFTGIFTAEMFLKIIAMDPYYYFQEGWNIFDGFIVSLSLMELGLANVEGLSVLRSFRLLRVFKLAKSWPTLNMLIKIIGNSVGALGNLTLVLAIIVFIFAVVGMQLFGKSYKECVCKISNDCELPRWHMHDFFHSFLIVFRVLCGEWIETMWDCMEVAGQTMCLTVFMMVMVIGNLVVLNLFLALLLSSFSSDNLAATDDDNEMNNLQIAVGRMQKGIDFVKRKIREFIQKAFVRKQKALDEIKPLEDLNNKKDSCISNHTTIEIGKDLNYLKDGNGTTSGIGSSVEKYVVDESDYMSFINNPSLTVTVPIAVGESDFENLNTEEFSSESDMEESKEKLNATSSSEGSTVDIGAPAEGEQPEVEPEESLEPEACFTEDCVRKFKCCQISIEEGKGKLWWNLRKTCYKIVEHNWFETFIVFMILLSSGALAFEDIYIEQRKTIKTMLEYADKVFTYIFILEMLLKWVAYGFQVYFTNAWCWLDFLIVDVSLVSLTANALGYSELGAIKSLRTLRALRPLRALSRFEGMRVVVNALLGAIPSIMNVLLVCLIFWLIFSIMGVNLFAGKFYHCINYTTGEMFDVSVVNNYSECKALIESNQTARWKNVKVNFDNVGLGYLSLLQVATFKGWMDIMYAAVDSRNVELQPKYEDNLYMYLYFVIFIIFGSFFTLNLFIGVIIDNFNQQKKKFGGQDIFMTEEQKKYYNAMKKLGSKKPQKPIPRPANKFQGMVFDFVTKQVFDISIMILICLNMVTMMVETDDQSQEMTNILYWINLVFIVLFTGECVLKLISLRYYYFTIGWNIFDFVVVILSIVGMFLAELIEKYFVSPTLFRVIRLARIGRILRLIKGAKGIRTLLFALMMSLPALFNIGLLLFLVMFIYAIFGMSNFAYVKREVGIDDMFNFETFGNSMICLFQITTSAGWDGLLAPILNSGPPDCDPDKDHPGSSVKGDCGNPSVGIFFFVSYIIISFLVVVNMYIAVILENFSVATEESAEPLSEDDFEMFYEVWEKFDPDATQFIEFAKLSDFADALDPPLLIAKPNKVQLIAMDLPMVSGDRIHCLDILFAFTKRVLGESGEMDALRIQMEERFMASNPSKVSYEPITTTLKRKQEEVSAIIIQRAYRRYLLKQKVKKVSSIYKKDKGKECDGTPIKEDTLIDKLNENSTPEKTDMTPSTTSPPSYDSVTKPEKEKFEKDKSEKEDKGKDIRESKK

Consider `Cc1ccccc1OC1CCN(CC2Cc3cccnc3C2)CC1` (stereo not shown) [Example 137, 6-((4-(o-tolyloxy)piperidin-1-yl)methyl)-6,7-dihydro-5H-cyclopenta[b] pyridine], for which, in experiment [1], the inhibition at 1 µM worked out at 44%. Moreover, in experiment [2] (read-out: 5HT2A IC50), the IC50 came out at 0.04 µM.
Take `c1ccc(OC2CCN(CC3CCc4ccccc43)CC2)cc1` (stereo not shown) [Example 106, 1-((2,3-dihydro-1H-inden-1-yl)methyl)-4-phenoxypiperidine]: the IC50 in experiment [1] was above 10 µM; in experiment [2] (read-out: 5HT2A IC50) it was 0.01 µM.
As to `O=C1c2ccccc2CCCN1CCN1CCC(Oc2ccc(F)cc2)CC1` [Example 208, 2-(2-(4-(4-fluorophenoxy)piperidin-1-yl)ethyl)-2,3,4,5-tetrahydro-1H-benzo[c]azepin-1-one], the IC50 in experiment [1] was 1.21 µM; in experiment [2] (read-out: 5HT2A IC50) it was 0.01 µM.
With `OC(COC1CCCCC1)CN1CC[C@H]2C[C@@H]1CN2c1ccccc1` (stereo partly drawn) [Example 325, 1-(cyclohexyloxy)-3-((1R,5S)-6-phenyl-2,6-diazabicyclo[3.2.1]octan-2-yl)propan-2-ol], the IC50 amounted to 0.22 µM in experiment [1] and 0.25 µM in experiment [2] (read-out: 5HT2A IC50).
In the case of `Cc1cccc(N2CCN(CC(O)COC3COc4cccnc43)CC2)c1C` (stereo not shown) [Example 82, 1-((2,3-dihydrofuro[3,2-b]pyridin-3-yl)oxy)-3-(4-(2,3-dimethylphenyl)piperazin-1-yl)propan-2-ol], the IC50 in experiment [1] turned out to be 1.35 µM; in experiment [2] (read-out: 5HT2A IC50), 0.04 µM.
Consider `COc1ccc2c(c1)C(CN1CC3CCC1CN3c1ccccc1)CC2` (single isomer, unassigned) [Example 310], for which the figures for the IC50 in experiment [1] and in experiment [2] (read-out: 5HT2A IC50) were 0.7 µM and 0.03 µM, respectively.
As for `c1ccc([C@@H]2COC3(CCN(C[C@@H]4CCc5ccccc54)CC3)C2)cc1` (single isomer, unassigned) [Compound 376], the IC50 in experiment [1] stood at 0.51 µM; in experiment [2] (read-out: 5HT2A IC50) it was 0.02 µM.
`Fc1ccc(N2CCC3(CCN(CC4Cc5ccccc5C4)C3)C2)cc1` (stereo not shown) [Example 340, 2-((2,3-dihydro-1H-inden-2-yl)methyl)-7-(4-fluorophenyl)-2,7-diazaspiro[4.4]nonane]: in experiment [1], the inhibition at 1 µM stood at 25%. In addition, in experiment [2] (read-out: 5HT2A IC50), the IC50 amounted to 0.1 µM.
On to `c1ccc(OC2CCN(CCO[C@@H]3CCc4ccccc43)CC2)cc1` [Example 218, (R)-1-(2-((2,3-dihydro-1H-inden-1-yl)oxy)ethyl)-4-phenoxypiperidine], for which the inhibition at 10 µM in experiment [1] amounted to 72%. Moreover, the IC50 in experiment [2] (read-out: 5HT2A IC50) came out at 0.44 µM.
`COc1cccc(CCCN2CCC(Oc3ccccc3)CC2)c1` [Example 225, 1-(3-(3-methoxyphenyl)propyl)-4-phenoxypiperidine]: the inhibition at 10 µM in experiment [1] came out at 88%. In addition, the IC50 in experiment [2] (read-out: 5HT2A IC50) is 0.25 µM.
For `OC(COC1CCCCC1)CN1CCC2(CCN(c3ccccc3)CC2)C1` (stereo not shown) [Example 350, 1-(cyclohexyloxy)-3-(8-phenyl-2,8-diazaspiro[4.5]decan-2-yl)propan-2-ol], the IC50 in experiment [1] is 1.68 µM; in experiment [2] (read-out: 5HT2A IC50), 0.61 µM.
In the case of `c1ccc(O[C@H]2COC3(C2)CN(C[C@H]2CCc4ccccc42)C3)cc1` (single isomer, unassigned) [Compound 365], the IC50 worked out at 2.18 µM in experiment [1] and 0.22 µM in experiment [2] (read-out: 5HT2A IC50).
Consider `COc1ccccc1OC1CCN(CC2Cc3ccccc3C2)[C@@H](C)C1` (single isomer, unassigned) [Example 147], for which the IC50 was 1.53 µM in experiment [1] and 0.07 µM in experiment [2] (read-out: 5HT2A IC50).
For `OC(COC1CCCCc2ccccc21)CN1CCC(Oc2ccccc2)CC1` (stereo not shown) [Example 240, 1-(4-phenoxypiperidin-1-yl)-3-((6,7,8,9-tetrahydro-5H-benzo[7]annulen-5-yl)oxy)propan-2-ol], the IC50 in experiment [1] came to 0.96 µM; in experiment [2] (read-out: 5HT2A IC50), 0.11 µM.
Regarding `O[C@H](COC1CCCCC1)CN1C[C@@H]2C[C@H]1CN2Cc1ccccc1` [Example 309, (S)-1-((1S,4S)-5-benzyl-2,5-diazabicyclo[2.2.1]heptan-2-yl)-3-(cyclohexyloxy)propan-2-ol], the inhibition at 10 µM in experiment [1] is 52%. Also, in experiment [2] (read-out: 5HT2A IC50), the IC50 was 4.81 µM.
For `COc1ccc2c(c1)C(CN1CCC(OCc3ccccc3Cl)CC1)CC2` (stereo not shown) [Example 244, 4-((2-chlorobenzyl)oxy)-1-((6-methoxy-2,3-dihydro-1H-inden-1-yl)methyl)piperidine], the results for the IC50 in experiment [1] and in experiment [2] (read-out: 5HT2A IC50) were 0.16 µM and 0.06 µM, respectively.
As for `c1ccc2c(c1)CCC1(CCN(CCC3Cc4ccncc4C3)CC1)O2` (stereo not shown) [Example 420, 1′-(2-(6,7-dihydro-5H-cyclopenta[c]pyridin-6-yl)ethyl)spiro[chromane-2,4′-piperidine]], the inhibition at 1 µM in experiment [1] was 0%. In addition, in experiment [2] (read-out: 5HT2A IC50), the IC50 amounted to 0.25 µM.
Regarding `c1cnc(OC2CCN(CC3CCc4ccccc43)CC2)nc1` (stereo not shown) [Example 125, 2-((1-((2,3-dihydro-1H-inden-1-yl)methyl)piperidin-4-yl)oxy) pyrimidine], in experiment [1], the inhibition at 1 µM was -3%. For the same compound, the IC50 in experiment [2] (read-out: 5HT2A IC50) amounted to 0.08 µM.
As to `OC1(c2ccccc2)COC2(CCN(CC3CCc4ccccc43)CC2)C1` (stereo not shown) [Example 374, 8-((2,3-dihydro-1H-inden-1-yl)methyl)-3-phenyl-1-oxa-8-azaspiro[4.5]decan-3-ol], the inhibition at 1 µM in experiment [1] was 9%. Further, in experiment [2] (read-out: 5HT2A IC50), the half-inhibitory concentration (IC50) was 0.25 µM.
Turning to `OC(COC1CCCCC1)CN1CCN(c2ccccc2)CC1` (stereo not shown) [Example 74, 1-(cyclohexyloxy)-3-(4-phenylpiperazin-1-yl)propan-2-ol], the figures for the IC50 in experiment [1] and in experiment [2] (read-out: 5HT2A IC50) were 50.8 µM and 0.06 µM, respectively.
In the case of `COc1ccc2c(c1)C(CN1CCC(Oc3ccc(F)cc3)CC1)CC2` (stereo not shown) [Example 113, 4-(4-fluorophenoxy)-1-((6-methoxy-2,3-dihydro-1H-inden-1-yl)methyl)piperidine hydrochloride], the IC50 amounted to 0.55 µM in experiment [1] and 0.002 µM in experiment [2] (read-out: 5HT2A IC50).
For the compound `O=C1c2ccccc2CCN1CCCN1CCC(Oc2cccnc2)CC1` [Example 220, 2-(3-(4-(pyridin-3-yloxy)piperidin-1-yl)propyl)-3,4-dihydroisoquinolin-1(2H)-one], the inhibition at 10 µM in experiment [1] was determined as 12%. The IC50 in experiment [2] (read-out: 5HT2A IC50) worked out at 0.49 µM.
In the case of `O=C1c2ccccc2CCN1CCN1CCN(c2ccccc2)CC1` [Example 63, 2-(2-(4-phenylpiperazin-1-yl)ethyl)-3,4-dihydroisoquinolin-1(2H)-one], in experiment [1], the inhibition at 1 µM was 16%. Moreover, the IC50 in experiment [2] (read-out: 5HT2A IC50) turned out to be 0.45 µM.
Consider `c1ccc2c(c1)CCC2CN1CCC2(CCc3cnccc3O2)CC1` (stereo not shown) [Example 404, 1-((2,3-dihydro-1H-inden-1-yl)methyl)-3′,4′-dihydrospiro[piperidine-4,2′-pyrano[3,2-c]pyridine]], for which the inhibition at 1 µM in experiment [1] was found to be 14%. Moreover, the IC50 in experiment [2] (read-out: 5HT2A IC50) was determined as 0.11 µM.
For `O[C@H](COC1CCCCC1)CN1[C@@H]2CC[C@H]1CN(c1ccccc1)C2` [Example 287, (S)-1-(cyclohexyloxy)-3-((1R,5S)-3-phenyl-3,8-diazabicyclo[3.2.1]octan-8-yl)propan-2-ol], the IC50 amounted to 0.58 µM in experiment [1] and 0.03 µM in experiment [2] (5HT2A IC50, μM).
Take `CN1Cc2ccccc2C(CCN2CCC(Oc3ccc(F)cc3)CC2)C1` (stereo not shown) [Example 180, 4-(2-(4-(4-fluorophenoxy)piperidin-1-yl)ethyl)-2-methyl-1,2,3,4-tetrahydroisoquinoline]: the inhibition at 1 µM in experiment [1] came out at 8%. In addition, in experiment [2] (read-out: 5HT2A IC50), the IC50 turned out to be 0.32 µM.

Values taken from patent US11186564B2, “Dual NAV1.2/5HT2a inhibitors for treating CNS disorders” (Sunovion Pharmaceuticals Inc., priority 2016, dated 2021).
